Results published in patent US4258184A, “Cephalosporin derivatives” (Meiji Seika Kaisha Ltd., priority 1976, dated 1981).
≈ marks a conversion by molar mass, not a printed value. Like-named read-outs stand apart in the source and are kept apart here.

Key:
[1] = system: Bacillus subtilis ATCC 6633; test: Minimum prohibiting concentration by agar plate dilution method; type: cell-based
From the text: (§1) Minimum prohibiting concentration (γ/ml)
(§2) by means of agar plate dilution method

[2] = system: Enterobacter species C73-17; test: as above; type: cell-based
From the text: as §1, §2

Escherichia coli C73-1 = test: as above; type: cell-based
From the text: as §1, §2

[3] = system: Escherichia coli K-12 IAM 1264; test: as above; type: cell-based; details: IAM1264, Table 1
From the text: as §1, §2

[4] = system: Escherichia coli NIHJ JC-2; test: as above; type: cell-based
From the text: as §1, §2

Proteus species C73-25 = test: as above; type: cell-based; details: read-out: Minimum prohibiting concentration
From the text: as §1, §2

Proteus species C73-34 = test: as above; type: cell-based; details: read-out: Minimum prohibiting concentration
From the text: as §1, §2

[5] = system: Pseudomonas aeruginosa IAM 1007; test: as above; type: cell-based
From the text: as §1, §2

[6] = system: Pseudomonas species C73-2; test: as above; type: cell-based; details: C732, Table 1
From the text: as §1, §2

[7] = system: Pseudomonas species C73-83; test: as above; type: cell-based
From the text: as §1, §2

Serratia species MS-2 = test: as above; type: cell-based
From the text: as §1, §2

Serratia species No. 2 = test: as above; type: cell-based
From the text: as §1, §2

[8] = system: Staphylococcus aureus 209p JC-1; test: as above; type: cell-based; details: read-out: Minimum prohibiting concentration
From the text: as §1, §2

[9] = system: Staphylococcus aureus No. 26; test: as above; type: cell-based
From the text: as §1, §2

[10] = system: Vibrio parahaemolyticus K-7; test: as above; type: cell-based
From the text: as §1, §2

Proteus morganii Kono = test: Minimum prohibiting/inhibition concentration by agar plate dilution method; type: cell-based; details: Morganella morganii
From the text: as §1, §2
(§3) Minimum inhibition concentration (γ/ml) by means
(§4) of agar plate dilution method

[11] = system: Salmonella enteriditis No. 11; test: as above; type: cell-based
From the text: as §1, §2, §3, §4

Salmonella typhi O-901-W = test: as above; type: cell-based; details: Salmonella enterica
From the text: as §1, §2, §3, §4

[12] = system: Staphylococcus aureus Smith S-424; test: as above; type: cell-based
From the text: as §1, §2, §3, §4

[13] = system: Vibrio parahaemolyticus K-5; test: as above; type: cell-based
From the text: as §1, §2, §3, §4

Klebsiella pneumoniae = test: Minimum inhibition concentration by agar plate dilution method; type: cell-based; details: Table 2
From the text: as §3, §4

[14] = system: Staphylococcus aureus Smith No. 26; test: as above; type: cell-based; details: read-out: Minimum inhibition concentration
From the text: as §3, §4

[15] = Toxicity, peritoneal administration to mice; type: in vivo; details: 6 mice, administered peritoneally, dosage amount of 200 mg/l kg
From the text: The toxicity of the compounds according to this invention is excellently low. […] As is clear from above, the compounds according to this invention are not only low in toxicity and excellent in anti-biotic activity but also have a prolonged action after administration. Therefore, they show excellent infection cure effect and infection-defense effect in before-or after-administration and in less dosage in comparison with known cephalosporin derivatives, for example, cephalothin, cefazolin or cephaloridine.

[16] = Escherichia coli, NIHJJC2, read-out: Minimum prohibiting concentration
[17] = Serratia, MS2, read-out: Minimum prohibiting concentration
[18] = Staphylococcus aureus, NO.26, read-out: Minimum prohibiting concentration
[19] = read-out: Minimum prohibiting concentration
[20] = Salmonella, NO.11, read-out: Minimum prohibiting concentration
[21] = ATCC6633, Table 1, agar plate dilution method, Bacillus subtilis ATCC 6633, read-out: Minimum prohibiting concentration
[22] = C7317, Table 1, agar plate dilution method, Enterobacter species C73-17, read-out: Minimum prohibiting concentration
[23] = C731, Table 1, agar plate dilution method, Escherichia coli C73-1, read-out: Minimum prohibiting concentration
[24] = NIHJJC2, Table 1, agar plate dilution method, Escherichia coli NIHJ JC-2, read-out: Minimum prohibiting concentration
[25] = Table 1, agar plate dilution method, Proteus species C73-34
[26] = IAM1007, Table 1, agar plate dilution method, Pseudomonas aeruginosa IAM 1007, read-out: Minimum prohibiting concentration
[27] = C7383, Table 1, agar plate dilution method, Pseudomonas species C73-83, read-out: Minimum prohibiting concentration
[28] = MS2, Table 1, agar plate dilution method, Serratia species MS-2, read-out: Minimum prohibiting concentration
[29] = Table 1, agar plate dilution method, Serratia species No. 2, read-out: Minimum prohibiting concentration
[30] = Table 1, agar plate dilution method, Staphylococcus aureus 209p JC-1
[31] = K7, Table 1, agar plate dilution method, Vibrio parahaemolyticus K-7, read-out: Minimum prohibiting concentration
[32] = Table 1, agar plate dilution method, Proteus morganii Kono, read-out: Minimum prohibiting concentration
[33] = SMITHS424, Table 1, agar plate dilution method, Staphylococcus aureus Smith S-424, read-out: Minimum prohibiting concentration
[34] = K5, Table 1, agar plate dilution method, Vibrio parahaemolyticus K-5, read-out: Minimum prohibiting concentration
[35] = Table 1, agar plate dilution method, Proteus species C73-25
[36] = Table 1, agar plate dilution method, Staphylococcus aureus No. 26, read-out: Minimum prohibiting concentration
[37] = read-out: Minimum inhibition concentration
[38] = Table 1, agar plate dilution method, Salmonella enteriditis No. 11, read-out: Minimum prohibiting concentration
[39] = Table 2, agar plate dilution method, Salmonella enteritidis N0. 11, read-out: Minimum inhibition concentration
[40] = K5, Table 2, agar plate dilution method, Vibrio parahaemolyticus K-5, read-out: Minimum inhibition concentration
[41] = Table 2, agar plate dilution method, Staphylococcus aureus Smith No. 26
[42] = Table 2, agar plate dilution method, Proteus morganii Kono, read-out: Minimum inhibition concentration

| Structure (SMILES) | MIC [3] [µg/mL] | MIC [4, 16] [µg/mL] | MIC (Proteus species C73-25) [µg/mL] | MIC [6] [µg/mL] | MIC (Serratia species MS-2; [17]) [µg/mL] | MIC (Salmonella typhi O-901-W; [19]) [µg/mL] | MIC [1, 21] [µg/mL] | MIC [2, 22] [µg/mL] | MIC (Escherichia coli C73-1; [23]) [µg/mL] | MIC (Proteus species C73-34; [25]) [µg/mL] | MIC [5, 26] [µg/mL] | MIC [7, 27] [µg/mL] | MIC (Serratia species No. 2; [29]) [µg/mL] | MIC [8, 30] [µg/mL] | MIC [10, 31] [µg/mL] | MIC [12, 33] [µg/mL] | MIC [13, 34] [µg/mL] | MIC (Salmonella typhi O-901-W; [37]) [µg/mL] | MIC [13, 40] [µg/mL] | MIC (Klebsiella pneumoniae) [µg/mL] | further results |
| --- | --- | --- | --- | --- | --- | --- | --- | --- | --- | --- | --- | --- | --- | --- | --- | --- | --- | --- | --- | --- | --- |
| Cc1ccc(-c2ccc(C(=O)N[C@@H](C(=O)NC3C(=O)N4C(C(=O)[O-])=C(CSc5nnc(C(N)=O)s5)CS[C@H]34)c3ccc(O)cc3)c(O)n2)cc1.[Na+] (stereo partly drawn) [Example 8, sodium 7-{D(-)-α-[2-hydroxy-6-(p-tolyl)pyridine-3-carbonylamino]-p-hydroxyphenylacetamido}-3-(5-carbamoyl-1,3,4-thiadiazol-2-ylthiomethyl)-3-cephem-4-carboxylate] | 1.56 | 12.5 | 50 | 50 | 50 | 1.56 | – | – | – | – | – | – | – | – | – | – | – | – | – | – | MIC ([1]; Bacillus subtilis, ATCC6633, read-out: Minimum prohibiting concentration): 0.78 µg/mL; MIC ([2]; Enterobacter, C7317, read-out: Minimum prohibiting concentration): 12.5 µg/mL; MIC (Escherichia coli C73-1; Escherichia coli, C731, read-out: Minimum prohibiting concentration): 6.25 µg/mL; MIC (Proteus species C73-34): 12.5 µg/mL; MIC ([5]; Pseudomonas aeruginosa, IAM1007, read-out: Minimum prohibiting concentration): 100 µg/mL; MIC ([7]; Pseudomonas, C7383, read-out: Minimum prohibiting concentration): 100 µg/mL; MIC (Serratia species No. 2; Serratia, NO.2, read-out: Minimum prohibiting concentration): 50 µg/mL; MIC ([8]; Staphylococcus aureus, 209P): 0.2 µg/mL; MIC [9, 18]: 3.13 µg/mL; MIC ([10]; Vibrio parahaemolyticus, K7, read-out: Minimum prohibiting concentration): 3.13 µg/mL; MIC (Proteus morganii Kono; [19]): 25 µg/mL; MIC [11, 20]: 0.78 µg/mL; MIC ([12]; Staphylococcus aureus, SMITHS424, read-out: Minimum prohibiting concentration): 0.39 µg/mL; MIC ([13]; Vibrio parahaemolyticus, K5, read-out: Minimum prohibiting concentration): 3.13 µg/mL |
| Cc1nnc(SCC2=C(C(=O)O)N3C(=O)[C@@H](NC(=O)Cn4cnnn4)[C@H]3SC2)s1 [Cefazolin Na, reference compound] | 3.13 (≈ 6.89 µM) | – | 3.13 (≈ 6.89 µM) | > 100 | – | 3.13 (≈ 6.89 µM) | 0.2 (≈ 0.44 µM) | 50 (≈ 110 µM) | 6.25 (≈ 13.8 µM) | 12.5 (≈ 27.5 µM) | > 100 | > 100 | > 100 | 0.1 (≈ 0.22 µM) | 12.5 (≈ 27.5 µM) | 0.78 (≈ 1.72 µM) | 6.25 (≈ 13.8 µM) | – | – | – | MIC [4, 24]: 6.25 µg/mL (≈ 13.8 µM); MIC (Serratia species MS-2; [28]): > 100 µg/mL; MIC [9, 18]: 3.13 µg/mL (≈ 6.89 µM); MIC (Proteus morganii Kono; [32]): > 100 µg/mL; MIC [11, 20]: 3.13 µg/mL (≈ 6.89 µM) |
| CC1(C)S[C@@H]2[C@H](NC(=O)C(C(=O)O)c3ccccc3)C(=O)N2[C@H]1C(=O)O (some centres unmarked) [Carbenicillin disodium, reference compound] | 12.5 | 12.5 | – | > 100 | 12.5 | 12.5 | 0.39 | > 100 | 25 | 50 | > 100 | > 100 | 50 | 0.39 | 50 | 0.39 | > 100 | 12.5 | > 100 | 25 | MIC (Proteus species C73-25; [35]): 50 µg/mL; MIC [9, 36]: 25 µg/mL; MIC (Proteus morganii Kono; [37]): 12.5 µg/mL; MIC (Proteus morganii Kono; [19]): 12.5 µg/mL; MIC [11, 38]: 50 µg/mL; MIC [11, 39]: 50 µg/mL; MIC [14, 41]: 25 µg/mL |
| Cc1ccc(-c2ccc(C(=O)N[C@@H](C(=O)NC3C(=O)N4C(C(=O)O)=C(CSc5nnnn5C)CS[C@H]34)c3ccccc3)c(O)n2)cc1 (stereo partly drawn) [Example 57, 7-{D-(-)-α-[2-hydroxy-6-(p-tolyl)pyridine-3-carbonylamino]-phenylacetamido}-3-(1-methyl-1,2,3,4-tetrazole-5-ylthiomethyl)-3-cephem-4-carboxylicacid] | – | – | – | – | – | – | – | – | – | – | – | – | – | – | – | – | – | 6.25 (≈ 9.29 µM) | 25 (≈ 37.2 µM) | 50 (≈ 74.3 µM) | MIC (Proteus morganii Kono; [42]): 100 µg/mL (≈ 149 µM); MIC [11, 39]: 3.13 µg/mL (≈ 4.65 µM); MIC ([12]; SMITHS424, Table 2, agar plate dilution method, Staphylococcus aureus Smith S-424, read-out: Minimum inhibition concentration): 12.5 µg/mL (≈ 18.6 µM); MIC [14, 41]: 50 µg/mL (≈ 74.3 µM) |
| Cc1ccc(-c2ccc(C(=O)N[C@@H](C(=O)NC3C(=O)N4C(C(=O)O)=C(CSc5nnc(C(N)=O)s5)CS[C@H]34)c3ccccc3)c(O)n2)cc1 (stereo partly drawn) [Example 2, 7-{D(-)-α-[2-hydroxy-6-(p-tolyl)pyridine-3-carbonylamino]phenylacetamido}-3-(5-carbamoyl-1,3,4-thiadiazol-2-ylthiomethyl)-3-cephem-4-carboxylic acid] | 6.25 (≈ 8.71 µM) | – | – | 100 (≈ 139 µM) | – | 3.13 (≈ 4.36 µM) | 1.56 (≈ 2.17 µM) | 50 (≈ 69.7 µM) | 25 (≈ 34.8 µM) | 12.5 (≈ 17.4 µM) | 100 (≈ 139 µM) | 100 (≈ 139 µM) | 100 (≈ 139 µM) | 0.78 (≈ 1.09 µM) | 12.5 (≈ 17.4 µM) | 0.78 (≈ 1.09 µM) | 25 (≈ 34.8 µM) | – | – | – | MIC [4, 24]: 25 µg/mL (≈ 34.8 µM); MIC (Proteus species C73-25; [35]): 25 µg/mL (≈ 34.8 µM); MIC (Serratia species MS-2; [28]): 50 µg/mL (≈ 69.7 µM); MIC [9, 36]: 6.25 µg/mL (≈ 8.71 µM); MIC (Proteus morganii Kono; [32]): 100 µg/mL (≈ 139 µM); MIC [11, 38]: 0.39 µg/mL (≈ 0.543 µM); mortality [15]: any mouse did not die |
| Cc1ccc(-c2ccc(C(=O)N[C@@H](C(=O)NC3C(=O)N4C(C(=O)O)=C(CSc5nnnn5C)CS[C@H]34)c3ccc(O)cc3)c(O)n2)cc1 (stereo partly drawn) [Example 56, 7-{D-(-)-α-[2-hydroxy-6-(p-tolyl)pyridine-3-carbonylamino]-p-hydroxyphenylacetamido}-3-(1-methyl-1,2,3,4-tetrazole-5-ylthiomethyl)-3-cephem-4-carboxylic acid] | – | – | – | – | – | – | – | – | – | – | – | – | – | – | – | – | – | 1.56 (≈ 2.26 µM) | 25 (≈ 36.3 µM) | 25 (≈ 36.3 µM) | MIC (Proteus morganii Kono; [42]): 12.5 µg/mL (≈ 18.1 µM); MIC [11, 37]: 1.56 µg/mL (≈ 2.26 µM); MIC ([12]; Staphylococcus aureus, SMITHS424, read-out: Minimum inhibition concentration): 1.56 µg/mL (≈ 2.26 µM); MIC ([14]; Staphylococcus aureus): 6.25 µg/mL (≈ 9.07 µM) |
